GI50 and TGI data for six compounds are collected here from PubChem BioAssay (NCI).

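Results reflect a 48-hour exposure of cells in 96-well plates to compound at five concentrations. GI50 marks 50% less growth. At the TGI there is no net growth.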 A value given as a limit tells only on which side of the number the result lay.

Test systems include A549 NSCLC; OVCAR-8 ovarian; OVCAR-3 ovarian; OVCAR-5 ovarian; HCT-15 colon; SR leukemia; K-562 leukemia; SNB-75 CNS; EKVX NSCLC; SF-539 CNS.
Experiment in all cases: growth of human tumour cells (NCI), 48 h

As to `COC(=O)[C@]12CC[C@@H](C)[C@H](C)[C@@H]1C1=CC[C@@H]3[C@@]4(C)C[C@@H](OC(C)=O)[C@H](O)[C@@](C)(COC(C)=O)[C@@H]4[C@H](O)C[C@@]3(C)[C@]1(C)CC2`, the GI50 in the assay with A549 NSCLC was 2.21 µM; in the assay on OVCAR-8 ovarian, 2.36 µM; with OVCAR-3 ovarian it was 2.74 µM; in the assay with OVCAR-5 ovarian, 2.23 µM; in the assay on HCT-15 colon it was 2.51 µM; in the assay with SR leukemia it was 1.72 µM. For the same compound, the GI50 was 2.33 µM in the assay with K-562 leukemia, 2.35 µM in the assay on SNB-75 CNS, 2.22 µM in the assay with EKVX NSCLC and 3.47 µM in the assay on SF-539 CNS. Further, the TGI in the assay on A549 NSCLC was found to be 8.34 µM; in the assay with OVCAR-8 ovarian, 5.91 µM; in the assay on OVCAR-3 ovarian it was 7.24 µM; with OVCAR-5 ovarian, 7.61 µM; in the assay on HCT-15 colon it was 9.01 µM; with SR leukemia it was 4.31 µM. Also, the TGI in the assay on K-562 leukemia was determined as 6.06 µM; in the assay on SNB-75 CNS, 11.7 µM; in the assay with EKVX NSCLC it was 6.69 µM; with SF-539 CNS, 13.3 µM.

Regarding `CC/C=C\C=C/C(=O)N/C=C/CC1Cc2cccc(O)c2C(=O)O1` (stereo not given), the GI50 was 34.9 µM with A549 NSCLC; 30 µM with OVCAR-8 ovarian; 15.1 µM in the assay with OVCAR-3 ovarian; 32.5 µM in the assay with OVCAR-5 ovarian; 13.6 µM in the assay on HCT-15 colon; 2.22 µM with SR leukemia. For the same compound, the GI50 in the assay with K-562 leukemia is 11.5 µM; with SNB-75 CNS it was 16 µM; in the assay on EKVX NSCLC, 38.8 µM; in the assay on SF-539 CNS, 13.9 µM. Moreover, the TGI is above 100 µM in the assay on A549 NSCLC; above 100 µM with OVCAR-8 ovarian; 39.7 µM with OVCAR-3 ovarian; 99.4 µM with OVCAR-5 ovarian; 42 µM in the assay on HCT-15 colon; 6.2 µM in the assay with SR leukemia. For the same compound, the TGI was above 100 µM in the assay with K-562 leukemia, above 100 µM in the assay on SNB-75 CNS, above 100 µM in the assay with EKVX NSCLC and 37.1 µM with SF-539 CNS.

For `CCN(CC)S(=O)(=O)c1ccc(OC)c(Nc2ncc(-c3ccccc3)o2)c1`, the GI50 with A549 NSCLC was 24.9 µM; in the assay on OVCAR-8 ovarian it was above 25 µM; with OVCAR-3 ovarian, above 19.5 µM; in the assay with OVCAR-5 ovarian, above 21.7 µM; in the assay with HCT-15 colon, above 15.5 µM; in the assay with SR leukemia it was above 14.1 µM. Further, the GI50 in the assay on K-562 leukemia is above 16.2 µM; with SNB-75 CNS it was above 9.36 µM; in the assay with EKVX NSCLC it was above 25 µM; in the assay with SF-539 CNS, above 17.3 µM. Besides, the TGI in the assay on A549 NSCLC, in the assay on OVCAR-8 ovarian, in the assay on OVCAR-3 ovarian, in the assay on OVCAR-5 ovarian, with HCT-15 colon and in the assay on SR leukemia was above 25 µM in each case. Moreover, the TGI in the assay on K-562 leukemia, with SNB-75 CNS, in the assay on EKVX NSCLC and in the assay with SF-539 CNS was above 25 µM each time.

Take `CC(C)(C)C[C@H]1NC(C(=O)NCC[C@H](O)CO)[C@H](c2cccc(Cl)c2)[C@@]12C(=O)Nc1cc(Cl)c(F)cc12` (stereo not given in full): the GI50 in the assay on A549 NSCLC is 3.13 µM; with OVCAR-8 ovarian it was 18.6 µM; in the assay with OVCAR-3 ovarian, 14.6 µM; in the assay on OVCAR-5 ovarian, 15.5 µM; with HCT-15 colon it was 17.8 µM; with SR leukemia it was 1.83 µM. Moreover, the GI50 in the assay with K-562 leukemia is 14.8 µM; with SNB-75 CNS, 14.1 µM; with EKVX NSCLC, 13.3 µM; with SF-539 CNS, 15.5 µM. The TGI in the assay on A549 NSCLC is 17.4 µM; with OVCAR-8 ovarian, 39.1 µM; with OVCAR-3 ovarian it was 28.1 µM; in the assay on OVCAR-5 ovarian it was 31.8 µM; with HCT-15 colon it was 37.5 µM; in the assay with SR leukemia, 10.1 µM. Moreover, the TGI in the assay on K-562 leukemia was 43.6 µM; in the assay with SNB-75 CNS, 29.9 µM; with EKVX NSCLC, 29.1 µM; in the assay with SF-539 CNS it was 31.8 µM.

For `COc1ccccc1NC(=O)C1=C(C)NC(C)=C(C(=O)Nc2ccccc2OC)C1c1ccccc1F`, the TGI in the assay on A549 NSCLC, in the assay on OVCAR-8 ovarian, in the assay on OVCAR-3 ovarian, in the assay with OVCAR-5 ovarian, in the assay with HCT-15 colon and in the assay on SR leukemia was above 100 µM in each case. For the same compound, the TGI with K-562 leukemia is above 100 µM; with SNB-75 CNS, 62.4 µM; with EKVX NSCLC it was above 100 µM; with SF-539 CNS, above 100 µM.

For the compound `COc1ccc(N2C(C)=C(C#N)C34C(=O)N(c5ccccc5)C(=O)C3=C(O)C=CC24O)cc1` (stereo not given), the GI50 with A549 NSCLC is 26.3 µM; in the assay on OVCAR-8 ovarian, 23.3 µM; in the assay on OVCAR-3 ovarian, 1.76 µM; with OVCAR-5 ovarian it was 18.1 µM; in the assay with HCT-15 colon, 13.8 µM; in the assay with SR leukemia, 5.98 µM. In addition, the GI50 is 28.3 µM with K-562 leukemia, 14.8 µM in the assay on SNB-75 CNS, 22.3 µM with EKVX NSCLC and 6.82 µM in the assay with SF-539 CNS. In addition, the TGI was above 100 µM with A549 NSCLC; above 100 µM with OVCAR-8 ovarian; 10.4 µM with OVCAR-3 ovarian; 73.8 µM in the assay with OVCAR-5 ovarian; 33.8 µM in the assay with HCT-15 colon; 50.4 µM in the assay on SR leukemia. In addition, the TGI with K-562 leukemia is above 100 µM; in the assay on SNB-75 CNS, 44.5 µM; in the assay on EKVX NSCLC, 85.8 µM; with SF-539 CNS, 25.3 µM.
